According to patent US20090325920A1, “METHODS FOR THE TREATMENT OF A TRAUMATIC CENTRAL NERVOUS SYSTEM INJURY” (priority 2005, published 2009):

Tested on: adults with blunt TBI, Glasgow Coma Scale score 4-12
Description: We also hoped to detect signals of activity.
According to the U.S. Food and Drug Administration, an “adverse event” is any undesirable medical event occurring to a subject in a clinical trial, whether or not related to the study drug. This includes events not seen at baseline, or worsened if present at baseline. “Serious adverse events” are defined as death, immediate risk of death, or suspicion that use or continued use would result in the patient's death, prolongation of existing hospitalization, persistent or significant disability/incapacity, or a congenital anomaly/birth defect.
These included any thromboembolic event (deep vein thrombosis, thrombophlebitis, ischemic myocardial infarction, pulmonary embolism, stroke or transient ischemic attack), elevated liver enzymes, temperature elevation, allergic reactions, and hyperglycemia. […] An independent internal safety monitor made the determination if an adverse event was associated with study treatment. Both the FDA and an independent NIH-appointed data safety monitoring board independently reviewed these determinations.
Selection of participants: Consecutive adult victims of blunt TBI who reached Grady within 11 hours of injury with a post-stabilization or “index” Glasgow Coma Scale score (iGCS) of 4-12 were eligible for enrollment (FIG. 5).
Interventions: Following proxy consent, patients were placed in one of 8 clinical subgroups defined by gender (male versus female), race (black versus all others) and TBI severity (moderate versus severe). […] This asymmetric approach was adopted at the request of our NIH-appointed DSMB to maximize the number of patients receiving study drug while maintaining blinding.
Whenever a patient was enrolled, the next kit in sequence for that subgroup was used to prepare infusions. […] The remaining vials were used to prepare 5 subsequent 12-hour infusions at the same standard rate of 10 mls/hour for a total of 3 days of treatment. Details of drug monitoring are reported elsewhere (Wright et al. (2005) J Clin Pharmacol 45(6):640-648).
Methods of Measurement: To assess drug safety, study personnel rounded daily to document the occurrence of adverse events (AEs) or serious adverse events (SAEs). Hourly vital signs (blood pressure, heart rate, respiratory rate, temperature, and pulse oximetry), intracranial pressure readings, and other parameters (mean arterial pressure, cerebral perfusion pressure, and fluid balance), were abstracted from each patient's chart. Laboratory values were obtained from the hospital's information system, and concomitant medications and interventions were noted.
Whenever an SAE occurred, an independent board-certified neurosurgeon assessed its potential relationship to study treatment using pre-defined scale. SABs were reported within 24 hours to the Institutional Review Board (IRB), our NIH-appointed Data Safety Monitoring Board (DSMB), and the U.S. Food and Drug Administration. All other adverse events were reported to on a weekly basis.
The infusion was stopped if a patient experienced an anaphylactic reaction, a major thromboembolic event, an unexplained elevation of serum aspartate aminotransferase (AST) or alanine aminotransferase (ALT) to a level greater than 5,000 IU, or a serum total bilirubin level greater than 10 mg/dl. […] These rules were based on O'Brien-Fleming boundaries (O'Brien and Fleming (1979) Biometrics 35(3):549-556), constructed using an alpha spending approach (DeMets and Lan (1994) Statistics in Medicine 13(13-14):1341-1352; discussion 1353-1346).
Primary Data Analysis—Treatment and placebo groups were compared with respect to a variety of demographic, historical and prehospital characteristics to ensure that important independent predictors of outcome were equally distributed.

## CC(=O)[C@H]1CC[C@H]2[C@@H]3CCC4=CC(=O)CC[C@]4(C)[C@H]3CC[C@]12C [progesterone, pregn-4-ene-3,20-dione]
both, human, in vivo, 30 days
  30-day adverse event rate: Acute respiratory distress syndrome: 2.6%
  30-day adverse event rate: Cardiac Arrhythmia: 5.2%
  30-day adverse event rate: Cholestatic Jaundice: 6.5%
  30-day adverse event rate: Fever: 70.1%
  30-day adverse event rate: Gastrointestinal Bleed: 5.2%
  30-day adverse event rate: Hyperglycemia-non DM: 27.3%
  30-day adverse event rate: Hypertension: 11.7%
  30-day adverse event rate: Hypotension: 9.1%
  30-day adverse event rate: Hypothermia: 5.2%
  30-day adverse event rate: Hypoxemia: 11.7%
  30-day adverse event rate: Increase Liver Enzyme: 6.5%
  30-day adverse event rate: Phlebitis at Injection Site: 1.3%
  30-day adverse event rate: Rash or Hives: 2.6%
  30-day adverse event rate: Seizures: 5.2%
  30-day adverse event rate: Shock: 2.6%
  30-day adverse event rate: Suspected Pneumonia: 11.7%
  30-day adverse event rate: Syndrome of inappropriate ADH: 1.3%
  30-day adverse event rate: Tachycardia: 24.7%
  30-day adverse event rate: Thromboembolic Disease: 3.9%
In vivo
  Mean Duration of Pressures Exceeding Threshold Values: CPP < 60: 6.9 h
  Mean Duration of Pressures Exceeding Threshold Values: ICP > 25: 5.0 h
  Mean Duration of Pressures Exceeding Threshold Values: MAP < 70: 2.5 h
  Mean Duration of Pressures Exceeding Threshold Values: Systolic BP < 90: 2.7 h
  Mean Frequency of Pressures Exceeding Threshold Values: CPP < 60: 92.9 Rate/1000 consecutive readings
  Mean Frequency of Pressures Exceeding Threshold Values: ICP > 25: 70.2 Rate/1000 consecutive readings
  Mean Frequency of Pressures Exceeding Threshold Values: MAP < 70: 29.5 Rate/1000 consecutive readings
  Mean Frequency of Pressures Exceeding Threshold Values: Systolic BP < 90: 32.1 Rate/1000 consecutive readings
  Percent of Patients with Clinical Values Exceeding the Threshold: CPP < 60: 48.7%
  Percent of Patients with Clinical Values Exceeding the Threshold: ICP > 25: 32.4%
  Percent of Patients with Clinical Values Exceeding the Threshold: MAP < 70: 29.0%
  Percent of Patients with Clinical Values Exceeding the Threshold: Systolic BP < 90: 29.0%
  adverse events specifically ascribed to administration: two cases of superficial phlebitis at the IV site
  aggregate and individual rates of adverse and serious adverse events versus placebo: not different between groups
  patients who developed a deep vein thrombosis: Three patients
  serious adverse events attributed to study drug: No serious adverse events were attributed to progesterone
  slope of treatment by time interaction term for mean temperature: −0.0055
Progesterone group, n=77
  30-day adverse event rate: Central nervous system infection: 1.3%
  30-day adverse event rate: Death within 30 days: 13.0%
  30-day adverse event rate: Sepsis: 2.6%
